PMC12563652 (International Journal of Molecular Sciences, 2025)
“And” between values parts separate entries of the source, which are not always exact repeats. Identical values can stand only once. Like-named read-outs stand apart in the source and are kept apart here. Marks after values point to notes of the source that are not given here.

Columns and labels:
α2-adrenoceptor = assay: Competitive radioligand binding, [3H]clonidine, rat cerebral cortex; settings: n.a. = no activity at 10–5 M
Procedure: The competitive radioligand-binding assay assessed affinity for α1- and α2-adrenoceptors. Experiments were carried out in the rat cerebral cortex. […] The membrane preparation and assay technique followed the previously reported protocol [10]. Radioactivity was measured using the MicroBeta2 scintillation counter (PerkinElmer, Kraków, Poland). The data was adjusted to match a single-site curve-fitting formula using Prism 8 (GraphPad Software, La Jolla, CA, USA), and the Ki values were estimated by means of the Cheng–Prusoff formula.

α2B-adrenoceptor [1] = target: T1, α2B-adrenoceptor (Homo sapiens, UniProt P18089); assay: α2B-adrenoceptor intrinsic activity, antagonist mode (AequoScreen); type: cell-based; settings: n.a. = no activity at 10–5 M; read-out: α2B Ant IC50
T1 sequence (P18089 1-450): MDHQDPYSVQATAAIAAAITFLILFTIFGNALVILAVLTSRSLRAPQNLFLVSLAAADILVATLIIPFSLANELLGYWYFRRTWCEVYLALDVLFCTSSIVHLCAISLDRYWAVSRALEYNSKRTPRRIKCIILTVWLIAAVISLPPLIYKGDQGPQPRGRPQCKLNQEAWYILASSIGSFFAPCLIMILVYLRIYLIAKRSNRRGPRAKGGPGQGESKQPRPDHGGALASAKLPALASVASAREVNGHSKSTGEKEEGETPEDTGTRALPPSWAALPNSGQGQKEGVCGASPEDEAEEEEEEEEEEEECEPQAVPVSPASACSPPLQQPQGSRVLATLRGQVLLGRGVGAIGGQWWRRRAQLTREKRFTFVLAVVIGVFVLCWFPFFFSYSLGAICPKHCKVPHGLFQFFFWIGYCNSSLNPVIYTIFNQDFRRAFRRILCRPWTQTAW
Procedure: (§1) The determination of intrinsic activity will be performed in accordance with the manufacturer’s Aequoscreen methodology—Perkin Elmer.
(§2) The cell density in the 96-well format was 5000 cells per well. Cell preparation for the assay was performed according to the manufacturer’s instructions for AequoScreen (PerkinElmer, Waltham, MA, USA). […] The cells suspension was applied onto the ligands with the injectors of the POLARstar optima reader (BMG Labtech, Ortenberg, Germany). […] The concentration and dilution series having four replicates were prepared as instructed in the AequoScreen Starter Kit Manual (PerkinElmer, Waltham, MA, USA). The wells received cell injections along with either the standard agonist or the compounds being evaluated, while the POLARstar optima reader documented the emitted light over a duration of 20 s. In the antagonist evaluation, cells were administered (50 μL) into the assay plate alongside antagonist solutions (50 μL). A single concentration of agonist (oxymetazoline) was injected (50 μL, final concentration EC80) into the preincubated (15–20 min) plate with cells and antagonist, and the emitted light was recorded for 20 s.

Danio rerio larvae [2] = assay: Fructose-induced lipid disturbance in zebrafish larvae (Oil Red O); type: in vivo; settings: 20 µg/mL with 4% fructose, 24 h
Procedure: Zebrafish larvae 4 dpf were incubated for another 24 h with 4% fructose (final solution) in embryo medium to induce metabolic disorders. Tested solutions (compounds in E3: JP-14 at concentration of 20 μg/mL or resveratrol of 40 μg/mL) were added to fructose solution (8% in E3). The final concentration of JP-14 was 10 μg/mL or resveratrol of 20 μg/mL. The control group was incubated with E3 only. Incubation was carried out in a 6-well plate (10 larvae/well) to which 3 mL of liquid was added per well. Larvae were then collected, euthanized with tricaine, and transferred to 4% formaldehyde solution. After 24 h, larvae were washed 3 times with PBS (Sigma-Aldrich, Germany) and stained for neutral lipids, similar to previous studies. Larvae incubated for 1 h in a solution of 0.25% oil red O (ORO, Merck, Darmstadt, Germany) in 60% isopropanol (Merck, Germany). The samples were then rinsed three times with 60% isopropanol and washed 6 times with PBS, then imaged on a microscope (OPTA-TECH MN16, Warszawa, Poland) and analyzed with the ImageJ FIJI program. […] Next, the samples were centrifuged (10 min, 3000 rpm, MPW-260R, MPW Med Instruments, Warszawa, Poland), and the amount of dye in supernatant was determined spectrophotometrically (MuLTISKAN.GO, Thermo Fisher Scientific Inc. Waltham, MA, USA) at a wavelength of 495 nm.

Danio rerio larvae [3] = assay: Nile red fluorescence fat metabolism assay in zebrafish larvae; type: in vivo; settings: 20 µg/mL, 48 h incubation of larvae
Procedure: The study was conducted based on the method described earlier by Jones et al.. Starting at 3 days after fertilization (dpf), larvae were placed into 6-well plates and incubated with the test solutions (compounds in E3: JP-14 at a concentration of 10 μg/mL or resveratrol or E3 alone) for 48 h. Resveratrol solution (20 μg/mL) was used as the reference compound. After 24 h, the solutions were replaced with new ones containing Nile red dye (9-diethylamino-5H-benzo[α]phenoxazine-5-one, Pol-aura, Poland) at a concentration of 100 ng/mL. Nile red is a selective fluorescent lipid dye used to stain lipid droplets. Incubation with the dye was therefore 24 h. Stock solution of Nile red was prepared earlier by dissolving it in acetone to a concentration of 500 μg/mL. After the incubation period, the larvae were rinsed 3 times with 0.1 M phosphate-buffered, pH 7.4 (PBS, Sigma-Aldrich, Schnelldorf, Germany) and anesthetized with cold […] tricaine solution (Sigma-Aldrich, Schnelldorf, Germany). Next, they were visualized under a fluorescence microscope (Zeiss.Discovery.V8, Zeiss, Oberkochen, Germany) and analyzed with ImageJ FIJI program (version 2.17.0).

human TAAR1 [4] = target: T2, human TAAR1 (Homo sapiens, UniProt Q96RJ0); assay: TAAR1 agonist activity, Hit Hunter cAMP assay; type: cell-based
T2 sequence (Q96RJ0 1-339): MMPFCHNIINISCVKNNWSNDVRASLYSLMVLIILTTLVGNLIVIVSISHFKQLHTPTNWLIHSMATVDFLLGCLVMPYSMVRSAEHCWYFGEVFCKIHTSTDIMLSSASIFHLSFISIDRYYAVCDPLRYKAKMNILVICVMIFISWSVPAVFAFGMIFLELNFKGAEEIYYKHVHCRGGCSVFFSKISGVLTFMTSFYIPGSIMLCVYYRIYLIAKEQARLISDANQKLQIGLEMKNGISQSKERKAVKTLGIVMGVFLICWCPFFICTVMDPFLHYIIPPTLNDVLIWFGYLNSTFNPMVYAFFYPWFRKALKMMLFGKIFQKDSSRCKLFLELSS
Procedure: The intrinsic activity of the TAAR1 receptor will be assessed according to the manufacturer’s protocol, using the Hit Hunter® cAMP assay by DiscoverX. This assay enables monitoring of GPCR activation in cells stably expressing TAAR1 by measuring changes in the level of the secondary messenger, cAMP. The cAMP Hunter cell lines were cultured from frozen stocks following standard procedures. Cells were plated in white-walled 384-well microplates at a total volume of 20 µL per well and incubated at 37 °C for the required period before analysis. To assess agonist activity, cells were exposed to the test compound to trigger a response. The culture medium was then removed and replaced with 15 µL of a 2:1 mixture of HBSS and 10 mM Hepes containing the cAMP XS+ antibody reagent. Sample stocks were diluted to prepare a 4× concentration in assay buffer. Subsequently, 5 µL of the 4× sample was added to each well, and the plates were incubated at either 37 °C or room temperature for 30 or 60 min. The vehicle was used at a concentration of 1%. After incubating the compounds for the required time, the assay signal was produced by adding 20 µL of the cAMP XS+ ED/CL lysis cocktail and incubating for one hour. This was followed by a three-hour incubation with 20 µL of the cAMP XS+EA reagent at room temperature. After signal development, the microplates were read using a PerkinElmer Envision Reader to detect chemiluminescence.

[5] = rat, intraperitoneal administration; cited from earlier work
[6] = system: platelet aggregation in rat whole blood; assay: In vitro collagen-induced platelet aggregation in rat whole blood (impedance aggregometry); type: cell-based; settings: collagen 1.6 µg/mL
Procedure: In vitro platelet aggregation assays were conducted using freshly collected whole blood from rats, utilizing the Multiplate platelet function analyzer (Roche Diagnostics, Mannheim, Germany)—a five-channel device that measures electrical impedance, following methods described previously. Upon stimulation, platelets adhere to and aggregate on dual metal sensors within the test cuvette, causing an increase in electrical resistance, which corresponds to the number of platelets attached to the electrodes.
Blood was collected from the carotid artery of the rat into tubes coated with hirudin (S-Monovette, Sarstedt, Germany). A volume of 300 μL of the anticoagulated blood was mixed with 300 μL of prewarmed isotonic saline that contained the test compound or a vehicle control (0.1% DMSO) and incubated at 37 °C for 3 min under continuous stirring. Aggregation was triggered by adding collagen (final concentration: 1.6 µg/mL). Platelet activity was monitored for 6 min. Multiplate V2.04 software calculated the area under the curve (AUC) for each measurement to determine average platelet response.

TAAR1 = settings: cited from earlier work
α2B-adrenoceptor [7] = target: T1, α2B-adrenoceptor; settings: read-out: α2B Ant IC50; cited from earlier work
α2A-adrenoceptor = target: T3, α2A-adrenoceptor (Homo sapiens, UniProt P08913); settings: cited from earlier work
T3 sequence (P08913 1-465): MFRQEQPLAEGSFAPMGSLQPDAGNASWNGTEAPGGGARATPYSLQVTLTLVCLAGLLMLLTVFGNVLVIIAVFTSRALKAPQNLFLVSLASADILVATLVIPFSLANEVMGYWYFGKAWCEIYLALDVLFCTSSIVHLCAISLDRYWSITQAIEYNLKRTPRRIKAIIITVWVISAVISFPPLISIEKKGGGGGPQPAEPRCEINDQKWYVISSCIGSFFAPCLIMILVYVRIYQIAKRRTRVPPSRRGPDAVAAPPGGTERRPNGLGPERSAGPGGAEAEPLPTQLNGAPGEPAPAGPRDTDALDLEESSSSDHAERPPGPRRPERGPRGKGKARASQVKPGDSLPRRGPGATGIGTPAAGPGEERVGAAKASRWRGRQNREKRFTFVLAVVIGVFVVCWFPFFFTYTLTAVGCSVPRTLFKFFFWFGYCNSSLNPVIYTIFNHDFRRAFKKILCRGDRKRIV

human TAAR1 [8] = target: T2, human TAAR1; settings: at 10^−4 M; cited from earlier work
[9] = target: T4, 5-HT2C serotoninergic receptor (Homo sapiens, UniProt P28335); assay: 5-HT2C intrinsic activity, antagonist mode (AequoScreen calcium mobilization); type: cell-based
T4 sequence (P28335 33-458): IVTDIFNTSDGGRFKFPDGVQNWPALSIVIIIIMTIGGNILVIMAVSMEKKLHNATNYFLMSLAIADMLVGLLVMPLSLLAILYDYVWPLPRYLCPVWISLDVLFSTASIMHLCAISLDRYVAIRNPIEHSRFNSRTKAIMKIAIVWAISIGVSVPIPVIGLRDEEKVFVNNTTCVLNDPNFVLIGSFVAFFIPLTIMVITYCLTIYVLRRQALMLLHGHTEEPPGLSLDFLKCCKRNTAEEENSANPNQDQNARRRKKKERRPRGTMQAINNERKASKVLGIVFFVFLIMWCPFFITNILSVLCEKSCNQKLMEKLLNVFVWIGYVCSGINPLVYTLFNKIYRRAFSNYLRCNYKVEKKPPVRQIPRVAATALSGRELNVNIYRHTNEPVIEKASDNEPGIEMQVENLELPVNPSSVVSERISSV
Procedure: as §1, §2

α1-adrenoceptor = assay: Competitive radioligand binding, [3H]prazosin, rat cerebral cortex; settings: n.a. = no activity at 10–5 M
Procedure: The competitive radioligand-binding assay assessed affinity for α1- and α2-adrenoceptors. Experiments were carried out in the rat cerebral cortex. […] The membrane preparation and assay technique followed the previously reported protocol. Radioactivity was measured using the MicroBeta2 scintillation counter (PerkinElmer, Kraków, Poland). The data was adjusted to match a single-site curve-fitting formula using Prism 8 (GraphPad Software, La Jolla, CA, USA), and the Ki values were estimated by means of the Cheng–Prusoff formula.

## COc1ccc(F)c(/C=N/NC(=N)N)c1F [8 (JP10)]
α2-adrenoceptor
  Ki: 232 ± 8.5 nM
α2B-adrenoceptor [1]
  IC50: 220 nM

## Oc1ccc(/C=C/c2cc(O)cc(O)c2)cc1 [resveratrol]
Danio rerio larvae [2]
  fructose-induced yolk enlargement: Comparable effects
Danio rerio larvae [3]
  Nile red detectable fat: slightly stronger effect

## N=C(N)N/N=C/c1c(Cl)cccc1Cl [guanabenz]
Human TAAR1 [4]; % of maximal response induced by the full agonist tyramine, listed as GNB
  TAAR1 Ago Emax: 60%
Human TAAR1 [4]; cAMP accumulation, n.a. = no activity at 10–5 M, read-out: TAAR1 Ago EC50
  EC50: 300 nM and 301 nM
Human TAAR1 [4]; read-out: TAAR1 Ago Emax, % of maximal response induced by the full agonist tyramine
  Emax: 50%
[5]
  highest (peak) level in brain: 183.2 ng/g
  tmax in brain: 60 min
[6]; 10 µM
  increase of collagen-induced platelet aggregation: 31.81%
[6]; 100 µM
  increase of collagen-induced platelet aggregation: 22.73%
TAAR1
  EC50: 8.5 nM

## 4-OH-guanabenz
α2B-adrenoceptor [7]
  IC50: 330 nM
[5]
  highest (peak) level in brain: 64.5 ng/g
  tmax in brain: 15 min
α2A-adrenoceptor; partial agonist
  α2A-adrenoceptor activation: 30%
α2A-adrenoceptor; read-out: α2A Ago EC50
  EC50: 316 nM
Human TAAR1 [8]
  TAAR1 Ago Emax (max Ago): 34%/ (10^−4M) ^a

## CC[C@@H](CO)NC(=O)[C@@H]1C=C2c3cccc4c3c(cn4C)C[C@H]2N(C)C1 [MSE, methysergide]
[9]
  EC50: 1.1 ± 0.1 nM

## Cc1ccc(N(CC2=NCCN2)c2cccc(O)c2)cc1 [PHT, phentolamine]
α1-adrenoceptor
  Ki: 10.9 ± 0.8 nM
